Test results reported in patent publication US7741435B2, “Substance P-saporin (SP-SAP) conjugates and methods of use thereof” (Advanced Targeting Systems, Inc., priority 1997, dated 2010).

Key:
[1] = test system: NK-1R-expressing spinal cord neurons; test: Internalization and cytotoxicity in primary cultures of spinal cord neurons; type: cell-based, rat; settings: for morphological or cytotoxic changes in NK-1R-expressing and non-NK-1R, MAP-2 neurons: treatment alone
Method: SP-SAP internalization and cytotoxicity was examined in primary cultures of neonatal rat spinal cord neurons where approximately 15% of the neurons express NK-1R. All procedures were approved by Animal Care Committee at the VA Medical Center and the University of Minnesota. Neurons were cultured from the spinal cords of 18-day embryonic Holtzman rats (Harlan Sprague Dawley, Madison, Wis.). The whole spinal cord was dissected out of the rat and placed in 4° C. Puck's saline supplemented with 40 mM. glucose, 50 mM sucrose, and 10 mM Hepes (DISG media, pH 7.4). The spinal cords were then dissociated by trituration (15-20 times) through a small bore serological pipet. The resulting cell suspension was centrifuged at 4° C. for 5 min at 1500 rpm in a Sorvall RC-3B centrifuge (DuPont, Newtown, Conn.). The supernatant was removed and the pellet resuspended in Dulbecco's modified Eagle's medium (DMEM; Sigma Chemical Co., St. Louis, Mo.) plus 5% equine serum and 5% calf serum (v/v) (Hyclone, Logan, Utah). The cell suspension was plated on poly-L-ornithine coated 2-well chamber slides at a density of 100,000 cells/ml, and incubated at 37° C. with 9% CO2. After 4 days the mitotic inhibitors, 5-fluoro-2′-deoxyuridine and uridine were added. At 7 days the media was replaced with DMEM plus 10% equine serum (v/v). The cells were incubated unil 14 days post-culture with media changes every 4th day.
At day 14 post-culture, either saline or SP, SP-SAP conjugate or saporin (SAP) were added to a final concentration of 10^−7 M. The cells were incubated for 12 hr with the SP-SAP or SAP compounds at which time the compounds were removed from the culture and fresh media was added. The cultures were then allowed to continue until the desired timepoints (2 hr. 1, 4, 7, and 10 days) at which time the experiment was terminated and the cells were processed for immunohistochemistry by fixing for 20 min at 22° C. with 4% formalin in a phosphate buffered saline solution as previously described (2,39-42). […] Two hours following treatment with 10^−7 M SP-SAP, but not 10^−7 M SAP, NK-1R internalization was visualized using an antibody that recognized NK-1R (FIG. 8A) and intracellular accumulation of SAP was visualized using an antibody that recognized SAP (FIG. 8B)
In contrast, one day following treatment with SP alone the majority of NK-1R had recycled to the plasma membrane. Thus, within 24 hours after SP-SAP internalization these neurons could no longer efficiently recycle NK-1R back to the plasma membrane.

[2] = General observation after intrathecal infusion (body weight, food intake, behavior); type: in vivo, rat; settings: for 28 days after intrathecal injection
[3] = test system: NK-1R-expressing lamina I spinal cord neurons; test: Cytotoxicity of intrathecal infusion in the spinal cord (immunohistochemistry, confocal microscopy); settings: for change in NK-1R immunoreactivity in lamina I, spinal segments L2-L5: intrathecal injection alone, any time point examined; for change in cell number, morphology or fluorescence level of any of the cell markers examined: treatment alone, 28 days
Method: Animals were anesthetized with an intramuscular injection of Ketamine (100 mg/kg) & Acepromazine (1 mg/kg) and placed in a stereotaxic frame. An 8.5-cm length of PE-10 tubing (inner diameter: 0.28 mm, outer diameter: 0.61 mm), serving as an inflow cannula, was inserted into the subarachnoid space via an incision in the atlanto-occipital membrane. The cannula terminated in the caudal region of the lumbar enlargement (approximately L4). […] 5 min after spinal superfusion, the cannula was carefully withdrawn and the wound closed with 3-0 silk sutures.
Immunohistochemistry and fluorescent confocal microscopy was performed as previously described (46) using an MRC-1024 Confocal Imaging System (Bio-Rad, Boston, Mass.) and an Olympus BH-2 microscope equipped for epifluorescence (Lake Success, N.Y.). For cell counts the spinal cords were cut in the sagittal plane whereas for immunofluorescence measurements the spinal cords were cut in either the sagittal or coronal plane. Both of the microscopes were set up as previously described (46,47). SPR was detected by a polyclonal rabbit anti-SPR antibody (1:5000; a kind gift from S. Vigna) raised against a 15 amino acid peptide sequence (SPR393-407) at the COOH-terminus of the rat SPR. […] Calbindin was detected by a monoclonal mouse anti-calbindin antibody (Sigma, 1:300). Microtubule-associated protein (MAP-2) was detected by a monoclonal mouse anti MAP-2 antibody (Sigma, 1:750). Choline acetyl transferase (CHAT) was detected by a monoclonal mouse anti-ChAT antibody (Chemicon, 1:500). Glial Fibrillary Acidic Protein was detected by a polyclonal rabbit anti-GFAP antibody (DAKO, 1:450). OX-42 was detected using a monoclonal mouse antibody (Chemicon, 1:2,000). Saporin was detected by a polyclonal goat anti-Saporin antibody (Advanced Targeting Systems, 1:350). […] All primary (overnight, 22° C.) and secondary (3 hours, 22° C.) antibodies were applied in cocktails with 1% goat serum and 0.3% Triton X-100 in PBS solution. Finally, the tissue sections were washed for 20 min in PBS (pH 7.4, 22_C), mounted onto gelatin-coated slides, and coverslipped using PBS-glycerine containing 1.0% p-phenylenediamine to reduce photobleaching.
To determine the number of immunofluorescent cell bodies (Table 1) the slides were viewed through a 1.0 cm^2 eyepiece grid, which was divided into one hundred 1 mm×1 mm units, and the total number of immunofluorescent cell bodies/unit area were counted. To calculate SPR immunofluorescence intensity, images of the 60 μm thick tissue sections were obtained with the BioRad MRC1024 laser scanning confocal fluorescent imaging system and analyzed using NIH Image 1.7.
Cell numbers and immunofluorescence levels were determined using confocal microscopy. […] All data points represent an n=6 and are expressed as +/−s.e.m. and significant differences calculated by a one-way ANOVA and Bonferroni comparisons (* denotes P<0.01).

[4] = test system: capsaicin-induced hyperalgesia in rats; test: Capsaicin-induced nocifensive behavior and mechanical and heat hyperalgesia after intrathecal pretreatment; type: in vivo, rat; settings: compared to normal untreated animals, any time point
Source text: Measures of nocifensive behavior and hyperalgesia produced by intraplantar injection of capsaicin were obtained as described previously (48). Hyperalgesia is defined as an increase in withdrawal responses. The capsaicin model of hyperalgesia used in these experiments was chosen as it has been well characterized, it clearly produces hyperalgesia in humans and it is the only model of hyperalgesia that can be used in parallel animal and human studies. Capsaicin (Sigma Chemical Co., St. Louis, Mo.) was dissolved in a vehicle of 7.5% polyxyethylene sorbitan monooleate (Tween-80) and saline, and given into the plantar surface of one hindpaw. Each animal received one injection of […]. The duration of nocifensive behavior, defined as lifting and guarding the injected paw, was measured for the first five minutes after injection.
Withdrawal responses to heat were determined using a procedure previously described (49). […] The start of each trial activated a timer and withdrawal latencies to the nearest 0.1 sec were measured automatically by a photocell which terminated each trial and stopped the timer upon withdrawal of the paw. […]
To measure withdrawal responses to mechanical stimuli, rats were placed under a clear plastic cage on an elevated plastic mesh floor (1 cm^2 perforations). […] The frequency was determined for each hindpaw. […]

NK-1R = molecular target: T1, NK-1R (Rattus norvegicus, UniProt P14600); test: Inhibition of radiolabeled SP binding to spinal cord membrane homogenates; settings: iodinated SP 150 pM, 100 nM nonlabeled competitor, FIG. 4
T1 construct: from tissue; host or cells: membrane homogenate (spinal cord according to the assay title)
T1 sequence (P14600 whole entry): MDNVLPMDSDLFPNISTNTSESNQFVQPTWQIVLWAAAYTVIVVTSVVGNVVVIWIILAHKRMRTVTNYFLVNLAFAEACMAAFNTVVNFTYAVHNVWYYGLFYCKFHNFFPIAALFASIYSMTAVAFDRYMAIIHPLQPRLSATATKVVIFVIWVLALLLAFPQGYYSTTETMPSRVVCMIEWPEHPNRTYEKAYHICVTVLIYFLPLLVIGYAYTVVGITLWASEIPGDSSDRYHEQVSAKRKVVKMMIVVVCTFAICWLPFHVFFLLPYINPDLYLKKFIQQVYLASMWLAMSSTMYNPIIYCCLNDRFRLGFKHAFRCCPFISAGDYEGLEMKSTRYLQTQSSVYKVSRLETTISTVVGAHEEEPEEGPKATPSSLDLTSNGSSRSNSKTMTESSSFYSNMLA
Method: Homogenate is prepared and binding performed as previously described (26). […] Membrane-bound label is separated from free label by centrifugation and measured with a gamma counter. Control is no addition of competitor.

[5] = L4 segment, 28 days post-treatment, intrathecal, n=6, ± s.e.m.

Molecule: COc1ccccc1CC(=N)N1C[C@@H]2C(=O)CCC(c3ccccc3)(c3ccccc3)[C@@H]2C1 [RP67580]
- block of SP- and SP-SAP-induced NK-1R internalization ([1]; 5×10^−6 M antagonist): blocked

Molecule: RPKPQQFFGLM [SP]
- changes in body weight, food intake, alertness, locomotion or grooming behavior [2]: no detectable changes
- change in NK-1R immunoreactivity in lamina I, spinal segments L2-L5 [3]: no change
- change in cell number, morphology or fluorescence level of any of the cell markers examined [3]: did not produce a significant change
- change in mechanical or thermal hyperalgesia, or nocifensive behavior produced by capsaicin [4]: no significant change
- NK-1R internalization ([1]; 10^−7 M, cultured spinal cord neurons): induced a rapid and similar degree of NK-1R internalization
- morphological or cytotoxic changes in NK-1R-expressing and non-NK-1R, MAP-2 neurons ([1]; 10^−7 M): no significant morphological or cytotoxic changes

Molecule: SAP: potent ribosome-inactivating protein isolated from the seeds of the plant Saponaria officinalis
- changes in body weight, food intake, alertness, locomotion or grooming behavior [2]: no detectable changes
- Percent immunoreactive positive cells (saline = 100), SP (DRG) ([3]; L4 dorsal root ganglia, 28 days post-treatment, intrathecal, n=6, ± s.e.m.): 91 ± 11%
- Percent immunofluorescence level, GFAP (lamina I) [3, 5]: 90 ± 13%
- Percent immunofluorescence level, MAP-2 (lamina I) [3, 5]: 100 ± 14%
- Percent immunofluorescence level, SP (laminae I and II) [3, 5]: 96 ± 3%
- Percent immunofluorescence level, SPR (laminae I and II) [3, 5]: 95 ± 3%
- Percent immunoreactive positive cells (saline = 100), Calbindin (laminae I and II) [3, 5]: 96 ± 7%
- Percent immunoreactive positive cells (saline = 100), ChAT (motor neurons) [3, 5]: 116 ± 24%
- Percent immunoreactive positive cells (saline = 100), SPR (lamina III and IV) [3, 5]: 79 ± 13%
- Percent immunoreactive positive cells (saline = 100), SPR (laminae I and II) [3, 5]: 80 ± 16%
- change in NK-1R immunoreactivity in lamina I, spinal segments L2-L5 [3]: no change
- Percent immunofluorescence level, SPR (preganglionic sympathetic) ([3]; spinal segment T10, 28 days post-treatment, intrathecal, n=6, ± s.e.m.): 100 ± 9%
- change in cell number, morphology or fluorescence level of any of the cell markers examined [3]: did not produce a significant change
- change in mechanical or thermal hyperalgesia, or nocifensive behavior produced by capsaicin [4]: no significant change
- morphological or cytotoxic changes in NK-1R-expressing and non-NK-1R, MAP-2 neurons ([1]; 10^−7 M): no significant morphological or cytotoxic changes
- inhibition of iodinated SP binding (NK-1R): little or no inhibition

Molecule: neurokinin A
- inhibition of iodinated SP binding (NK-1R): significant interaction with the NK-1R

Molecule: neurokinin B
- inhibition of iodinated SP binding (NK-1R): little or no inhibition
